Source: PubChem BioAssay (NCI)
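48-hour exposure; five concentrations; linearly interpolated endpoints. GI50 = concentration required for 50% inhibition of growth. TGI: total growth inhibition.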

Tested on: MDA-MB-468 breast
Experiment: NCI anticancer screen, dose series, 48 h

| SMILES | GI50 | TGI |
| --- | --- | --- |
| C/C(=N\Nc1cc(C)c2ccccc2n1)c1ccccn1 | 66.2 nM | 749 nM |
| Cc1nc2sc(C(=O)Nc3cccc4ccccc34)c(N)c2cc1C(O)c1ccccc1 (configuration not stated) | 35.1 nM | 15200 nM |
| C[C@@H](O)[C@H](NC(=O)N[C@@H](CC(N)=O)c1nc([C@@H](N)CO)no1)C(=O)O | > 100000 nM | > 100000 nM |
| NC1CCC(Nc2nc(NCc3ccc(-c4ccccc4O)nc3)c3ncn(C4CCCC4)c3n2)CC1 (configuration not stated) | < 10 nM | 12.9 nM |
| Cc1c2c(cc[n+]1Cc1ccccc1)c1ccc(OCc3ccccc3)cc1n2Cc1ccccc1 | 191 nM | 915 nM |
| Cc1ccc2c(-c3ccnc(Nc4ccccc4)n3)c(-c3ccc(F)cc3)nn2n1 | 961 nM | 6350 nM |
| COc1ccc(-c2cc(-c3ccc(Cl)cc3)nc(SCCCC(=O)NO)n2)cc1 | 1490 nM | 4340 nM |
| C=CCn1c(SCC(=O)Nc2ccc(C(=O)/C=C/c3cc(OC)c(OC)c(OC)c3)cc2)nnc1-c1c[nH]c2ccccc12 | 1770 nM | 4210 nM |
| C=C(NC(=O)C(=C)NC(=O)c1csc(C2=NC3c4csc(n4)C4NC(=O)c5csc(n5)C(C(C)(O)C(C)O)NC(=O)C5CSC(=N5)C(=CC)NC(=O)C(C(C)O)NC(=O)c5csc(n5)C3(CC2)NC(=O)C(C)NC(=O)C(=C)NC(=O)C(C)NC(=O)C(C(C)CC)NC2C=Cc3c(C(C)O)cc(nc3C2O)C(=O)OC4C)n1)C(N)=O (configuration not stated) | 1580 nM | 3630 nM |
| C=C(C)[C@@H]1CC[C@]2(C(=O)O)CC[C@]3(C)[C@H](CC[C@@H]4[C@@]5(C)CCC(NC(=O)c6cccc(OC(C)=O)c6OC(C)=O)C(C)(C)[C@@H]5CC[C@]43C)[C@@H]12 (some centres not stated) | 424 nM | 2890 nM |
| C=C1C(=O)O[C@H]2[C@H]1CC/C(COC(=O)C(=O)c1cn(C)c3ccc(Cl)cc13)=C\CC[C@@]1(C)O[C@@H]21 | 248 nM | 637 nM |
| CNC(=O)c1ccc(N2C(=S)N(c3ccc(C#N)c(C(F)(F)F)c3)C(=O)C2(C)C)cc1F | 17100 nM | > 75700 nM |
| O=C(O)c1ccc(Oc2nccc(-c3c(-c4ccc(F)cc4)ncn3C3CCNCC3)n2)cc1 | > 25000 nM | > 25000 nM |
| CC(C)C[C@H](NC(=O)Cn1ccc(NCc2ccccc2)cc1=O)B(O)O | 370 nM | 1780 nM |
| CC(=O)N1C/C(=C/c2ccc(Cl)cc2)C(=O)/C(=C/c2ccc(Cl)cc2)C1 | 469 nM | 1760 nM |
| CCOC(=O)NC1C2CC(=O)OC(O2)C1OC(C)=O (configuration not stated) | > 100000 nM | > 100000 nM |
| N#CC1=C(N)Oc2c(ccc3ccccc23)C1c1ccccc1 (configuration not stated) | 75.1 nM | 1790 nM |
| O=C1CC(=O)N(C(=O)c2nn(-c3ccc(Cl)cc3)cc2O)N1 | 716 nM | > 66500 nM |
| CCCN(CCC)c1ccc(/C=C/c2ccc3cc(OCC)ccc3n2)cc1 | 80100 nM | > 100000 nM |
| CCC(=O)Nc1ccccc1C#C/C=C\C#Cc1ccccc1SC | 3120 nM | > 100000 nM |
| Cc1ccc(Cc2cnc(NC(=O)/C=C/c3cccc(C)c3)s2)cc1 | 309 nM | – |
| COc1cc2ncn(-c3cc(O[C@@H](C)c4ccccc4Cl)c(C(N)=O)s3)c2cc1OC | 120 nM | 1610 nM |
| CC(=Nc1ccccc1)C1=C(O)C(Cc2ccc(O)cc2)NC1=O (configuration not stated) | 24.4 nM | 87.4 nM |
| CS(=O)(=O)CCNCc1ccc(-c2ccc3ncnc(Nc4ccc(OCc5ccccc5)c(Br)c4)c3c2)o1 | 82 nM | 1000 nM |
| C=C(CN1CCN(c2cccc(C(F)(F)F)n2)CC1)c1ccc(C(=O)Nc2ccccc2N)cc1 | 1190 nM | 7280 nM |
| COc1cc(-c2ccc(-c3ccc(C(=N)N)nc3)s2)cc(OC)c1OC | 1740 nM | 4410 nM |
| COc1cc2c(cc1OC)-c1ccc3cc4c(cc3c1N(CCCn1ccnc1)C2)OCO4 | 397 nM | 2730 nM |
| COc1cccc(/C=C/[N+](=O)[O-])c1 | 2300 nM | 5210 nM |
| O=S(=O)(NCCCNc1nccc(-c2c(-c3ccc(F)c(O)c3)nc3sccn23)n1)c1ccc(F)cc1 | 2620 nM | 7350 nM |
